Reference: patent US20160046618A1, “Cyclopropyl Fused Thiazin-2-Amine Compounds as Beta-Secretase Inhibitors and Methods of Use” (AMGEN INC., priority 2014, published 2016)

Key:
Recombinant Cat D = Recombinant Cat D (Homo sapiens (Human), UniProt P07339); assay: In vitro enzymatic Cathepsin D (Cat D) FRET assay; type: biochemical; conditions: read-out: IC50 IP (μM) CatD
Procedure, shortened: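 CHO-expressed enzyme; buffer 0.05 M citrate pH 3.5, 5 mM CHAPS, 10% DMSO final. Start with FRET substrate 20 nM, 1 h incubation, Tris stop (pH to neutral), fluorescence ex 500 nm/em 580 nm.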

[1] = system: Aβ40 in conditioned medium of cells stably expressing Amyloid Precursor Protein (APP); assay: In vitro BACE-1 cell-based assay (Aβ40 sandwich ELISA); conditions: read-out: IC50 IP (μM) BACE1 cell
Procedure, shortened: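 APP-expressing cells treated 24 h at 37 °C with compound in 10-point dose response (top 100 μM or 10 μM, 0.1% DMSO final). Secreted Aβ40 in conditioned medium quantified by sandwich ELISA (pAb40 capture, biotinylated 6E10 detection, time-resolved europium fluorescence); IC50 from percent inhibition versus concentration.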

human recombinant BACE2 = human recombinant BACE2 (Homo sapiens (Human), UniProt Q9Y5Z0); assay: In vitro enzymatic BACE2 FRET assay; type: biochemical; conditions: read-out: IC50 IP (μM) BACE2 enzyme
Procedure, shortened: (§1)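 Ni-NTA-purified recombinant protease incubated with compound; reaction started with 50 nM FRET peptide substrate (fluorophore/quencher flanking the BACE cleavage site) and run 1 h. Stopped with Tris buffer raising pH to neutral; fluorescence read at ex 488/em 590 nm.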

human recombinant BACE1 = human recombinant BACE1 (Homo sapiens (Human), UniProt P56817); assay: In vitro enzymatic BACE1 FRET assay; type: biochemical; conditions: read-out: IC50 IP (μM) BACE1 enzyme
Procedure, shortened: as §1

Chain of human recombinant BACE2 (Q9Y5Z0 63-518): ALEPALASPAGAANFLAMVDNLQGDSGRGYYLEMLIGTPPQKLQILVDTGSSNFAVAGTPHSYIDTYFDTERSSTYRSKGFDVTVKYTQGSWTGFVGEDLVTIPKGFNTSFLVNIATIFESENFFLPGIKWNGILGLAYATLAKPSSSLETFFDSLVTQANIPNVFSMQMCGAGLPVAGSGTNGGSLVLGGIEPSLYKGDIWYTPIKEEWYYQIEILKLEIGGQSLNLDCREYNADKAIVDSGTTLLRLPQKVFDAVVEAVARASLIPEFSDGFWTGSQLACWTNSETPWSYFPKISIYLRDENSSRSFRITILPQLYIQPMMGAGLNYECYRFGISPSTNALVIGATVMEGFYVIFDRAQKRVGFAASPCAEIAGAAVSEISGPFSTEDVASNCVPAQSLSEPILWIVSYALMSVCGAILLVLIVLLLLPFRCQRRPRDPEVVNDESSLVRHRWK
Chain of Recombinant Cat D (P07339 65-412): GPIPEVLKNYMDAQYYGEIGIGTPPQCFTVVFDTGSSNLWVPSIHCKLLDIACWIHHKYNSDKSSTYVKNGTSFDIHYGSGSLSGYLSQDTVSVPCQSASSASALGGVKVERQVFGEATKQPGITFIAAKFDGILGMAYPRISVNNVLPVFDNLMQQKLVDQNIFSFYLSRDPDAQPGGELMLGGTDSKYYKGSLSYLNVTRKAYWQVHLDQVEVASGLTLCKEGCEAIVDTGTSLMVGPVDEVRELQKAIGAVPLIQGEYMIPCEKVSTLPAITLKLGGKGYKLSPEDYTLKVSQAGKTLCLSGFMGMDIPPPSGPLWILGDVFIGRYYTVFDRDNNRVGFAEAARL
Chain of human recombinant BACE1 (P56817 46-501): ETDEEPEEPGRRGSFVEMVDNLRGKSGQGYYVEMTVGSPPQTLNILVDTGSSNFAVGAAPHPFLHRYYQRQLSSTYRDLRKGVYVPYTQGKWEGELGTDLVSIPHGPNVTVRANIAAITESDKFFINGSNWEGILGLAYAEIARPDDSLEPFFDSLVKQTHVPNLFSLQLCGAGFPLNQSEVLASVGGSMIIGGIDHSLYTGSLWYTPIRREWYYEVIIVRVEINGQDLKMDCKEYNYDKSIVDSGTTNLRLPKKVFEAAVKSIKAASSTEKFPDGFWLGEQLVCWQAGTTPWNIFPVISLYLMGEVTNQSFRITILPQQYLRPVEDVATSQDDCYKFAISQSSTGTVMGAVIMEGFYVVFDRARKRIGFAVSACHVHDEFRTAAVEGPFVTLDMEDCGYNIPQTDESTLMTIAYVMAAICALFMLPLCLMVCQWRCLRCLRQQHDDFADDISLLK

Row | Structure (SMILES) | IC50 (Recombinant Cat D) [µM] | IC50 [1] [µM] | IC50 (human recombinant BACE2) [µM] | IC50 (human recombinant BACE1) [µM]
1 | COC[C@]12C[C@H]1[C@@](C)(c1cc(NC(=O)c3ncc(OCc4ncco4)cc3C)ccc1F)N=C(N)S2 [Example 644, N-(3-((1S,5S,6S)-3-amino-1-(methoxymethyl)-5-methyl-2-thia-4-azabicyclo[4.1.0]hept-3-en-5-yl)-4-fluorophenyl)-3-methyl-5-(1,3-oxazol-2-ylmethoxy)-2-pyridinecarboxamide] | > 400 | 0.0137 | 0.207 | 0.014
2 | COC[C@]12C[C@H]1[C@@](C)(c1cc(NC(=O)c3ncc(OCc4ncco4)cc3C)cc(F)c1F)N=C(N)S2 [Example 646, N-(3-((1S,5S,6S)-3-amino-1-(methoxymethyl)-5-methyl-2-thia-4-azabicyclo[4.1.0]hept-3-en-5-yl)-4,5-difluorophenyl)-3-methyl-5-(1,3-oxazol-2-ylmethoxy)-2-pyridinecarboxamide] | 865 | 0.013 | 0.211 | 0.00656
3 | C#C[C@H](C)Oc1cnc(C(=O)Nc2cc(F)c(F)c([C@@]3(C)N=C(N)S[C@@]4(C(F)F)C[C@@H]34)c2)c(C)c1 [Example 647, N-(3-((1S,5S,6S)-3-amino-1-(difluoromethyl)-5-methyl-2-thia-4-azabicyclo[4.1.0]hept-3-en-5-yl)-4,5-difluorophenyl)-3-methyl-5-(((1S)-1-methyl-2-propyn-1-yl)oxy)-2-pyridinecarboxamide] | 389 | 0.259 | 0.342 | 0.0236
4 | C#C[C@H](C)Oc1cnc(C(=O)Nc2ccc(F)c([C@@]3(C)N=C(N)S[C@@]4(COC)C[C@H]43)c2)c(C)c1 [Example 649, N-(3-((1S,5S,6S)-3-amino-1-(methoxymethyl)-5-methyl-2-thia-4-azabicyclo[4.1.0]hept-3-en-5-yl)-4-fluorophenyl)-3-methyl-5-(((1S)-1-methyl-2-propyn-1-yl)oxy)-2-pyridinecarboxamide] | 803 | 0.131 | 0.284 | 0.0646
5 | C#C[C@H](C)Oc1cnc(C(=O)Nc2cc(F)c(F)c([C@@]3(C)N=C(N)S[C@@]4(COC)C[C@H]43)c2)c(C)c1 [Example 650, N-(3-((1S,5S,6S)-3-amino-1-(methoxymethyl)-5-methyl-2-thia-4-azabicyclo[4.1.0]hept-3-en-5-yl)-4,5-difluorophenyl)-3-methyl-5-(((1S)-1-methyl-2-propyn-1-yl)oxy)-2-pyridinecarboxamide] | 777 | 0.344 | 0.556 | 0.0389
6 | C#C[C@H](C)Oc1cnc(C(=O)Nc2ccc(F)c([C@@]3(C)N=C(N)S[C@@]4(CF)C[C@H]43)c2)c(C)c1 [Example 651, N-(3-((1S,5S,6S)-3-amino-1-(fluoromethyl)-5-methyl-2-thia-4-azabicyclo[4.1.0]hept-3-en-5-yl)-4-fluorophenyl)-3-methyl-5-(((1S)-1-methyl-2-propyn-1-yl)oxy)-2-pyridinecarboxamide] | 1030 | 0.139 | 0.397 | 0.0589
7 | Cc1cc(OCc2ncco2)cnc1C(=O)Nc1ccc(F)c([C@@]2(C)N=C(N)S[C@@]3(CF)C[C@H]32)c1 [Example 652, N-(3-((1S,5S,6S)-3-amino-1-(fluoromethyl)-5-methyl-2-thia-4-azabicyclo[4.1.0]hept-3-en-5-yl)-4-fluorophenyl)-3-methyl-5-(1,3-oxazol-2-ylmethoxy)-2-pyridinecarboxamide] | > 400 | 0.0256 | 0.142 | 0.00756
8 | C#CCOc1cnc2c(Nc3cnc(F)c([C@@]4(C)N=C(N)S[C@@]5(C(F)F)C[C@@H]45)c3)nccc2n1 [Example 653, N-(5-((1S,5S,6S)-3-amino-1-(difluoromethyl)-5-methyl-2-thia-4-azabicyclo[4.1.0]hept-3-en-5-yl)-6-fluoro-3-pyridinyl)-2-(2-propyn-1-yloxy)pyrido[3,4-b]pyrazin-5-amine] | 260 | 0.00151 | 0.0192 | 0.000544
9 | C[C@]1(c2cc(Nc3nccc4nc(OCc5ncco5)cnc34)cnc2F)N=C(N)S[C@@]2(C(F)F)C[C@@H]12 [Example 654, N-(5-((1S,5S,6S)-3-amino-1-(difluoromethyl)-5-methyl-2-thia-4-azabicyclo[4.1.0]hept-3-en-5-yl)-6-fluoro-3-pyridinyl)-2-(1,3-oxazol-2-ylmethoxy)pyrido[3,4-b]pyrazin-5-amine] | 861 | 0.00166 | 0.0291 | 0.000931
10 | C[C@]1(c2cc(NC(=O)c3ccc(Cl)cn3)cnc2F)N=C(N)S[C@@]2(C(F)F)C[C@@H]12 [Example 655, N-(5-((1S,5S,6S)-3-amino-1-(difluoromethyl)-5-methyl-2-thia-4-azabicyclo[4.1.0]hept-3-en-5-yl)-6-fluoro-3-pyridinyl)-5-chloro-2-pyridinecarboxamide] | 1720 | 0.006 | < 0.00203 | 0.00455
11 | CC(C)NC(=O)c1cnc2c(Nc3cnc(F)c([C@@]4(C)N=C(N)S[C@@]5(C(F)F)C[C@@H]45)c3)nccc2c1 [Example 656, 8-((5-((1S,5S,6S)-3-amino-1-(difluoromethyl)-5-methyl-2-thia-4-azabicyclo[4.1.0]hept-3-en-5-yl)-6-fluoro-3-pyridinyl)amino)-N-(1-methylethyl)-1,7-naphthyridine-3-carboxamide] | 998 | 0.624 | 2.35 | 0.387
12 | C[C@]1(c2cc(Nc3nccc4cc(C#N)cnc34)cnc2F)N=C(N)S[C@@]2(C(F)F)C[C@@H]12 [Example 657, 8-((5-((1S,5S,6S)-3-amino-1-(difluoromethyl)-5-methyl-2-thia-4-azabicyclo[4.1.0]hept-3-en-5-yl)-6-fluoro-3-pyridinyl)amino)-1,7-naphthyridine-3-carbonitrile] | 306 | 0.00533 | 0.00303 | 0.00369
13 | C[C@]1(c2cc(Nc3ncnc4cc(C#N)cnc34)cnc2F)N=C(N)S[C@@]2(C(F)F)C[C@@H]12 [Example 658, 4-((5-((1S,5S,6S)-3-amino-1-(difluoromethyl)-5-methyl-2-thia-4-azabicyclo[4.1.0]hept-3-en-5-yl)-6-fluoro-3-pyridinyl)amino)pyrido[3,2-d]pyrimidine-7-carbonitrile] | 705 | 0.0136 | 0.0293 | 0.0107
14 | C#CCOc1cnc2c(Nc3cnc(F)c([C@@]4(C)N=C(N)S[C@@]5([C@H](O)C(F)(F)F)C[C@H]54)c3)nccc2n1 [Example 659, (1R)-1-((1S,5S,6S)-3-amino-5-(2-fluoro-5-((2-(2-propyn-1-yloxy)pyrido[3,4-b]pyrazin-5-yl)amino)-3-pyridinyl)-5-methyl-2-thia-4-azabicyclo[4.1.0]hept-3-en-1-yl)-2,2,2-trifluoroethanol] | 462 | 0.0013 | 0.00425 | 0.000774
15 | C#CCOc1cnc2c(Nc3cnc(F)c([C@@]4(C)N=C(N)S[C@]5(CO)[C@H]4C5(F)F)c3)nccc2n1 [Example 661, ((1S,5S,6R)-3-amino-7,7-difluoro-5-(2-fluoro-5-((2-(2-propyn-1-yloxy)pyrido[3,4-b]pyrazin-5-yl)amino)-3-pyridinyl)-5-methyl-2-thia-4-azabicyclo[4.1.0]hept-3-en-1-yl)methanol] | 795 | 0.00244 | 0.00392 | 0.000765
16 | C[C@]1(c2cc(Nc3nccc4nc(OCc5ncco5)cnc34)cnc2F)N=C(N)S[C@]2(CO)[C@H]1C2(F)F [Example 663, ((1S,5S,6R)-3-amino-7,7-difluoro-5-(2-fluoro-5-((2-(1,3-oxazol-2-ylmethoxy)pyrido[3,4-b]pyrazin-5-yl)amino)-3-pyridinyl)-5-methyl-2-thia-4-azabicyclo[4.1.0]hept-3-en-1-yl)methanol] | 601 | 0.00338 | 0.0174 | 0.00048
17 | C[C@]1(c2cc(Nc3ncnc4cc(OCc5ncco5)cnc34)cnc2F)N=C(N)S[C@]2(CO)[C@H]1C2(F)F [Example 664, ((1S,5S,6R)-3-amino-7,7-difluoro-5-(2-fluoro-5-((7-(1,3-oxazol-2-ylmethoxy)pyrido[3,2-d]pyrimidin-4-yl)amino)-3-pyridinyl)-5-methyl-2-thia-4-azabicyclo[4.1.0]hept-3-en-1-yl)methanol] | > 400 | 0.0143 | 0.046 | 0.000274
18 | C#CCOc1cnc2c(Nc3cnc(F)c([C@@]4(C)N=C(N)S[C@@]5([C@H](O)C(F)(F)F)C[C@H]54)c3)ncnc2c1 [Example 665, (1R)-1-((1S,5S,6S)-3-amino-5-(2-fluoro-5-((7-(2-propyn-1-yloxy)pyrido[3,2-d]pyrimidin-4-yl)amino)-3-pyridinyl)-5-methyl-2-thia-4-azabicyclo[4.1.0]hept-3-en-1-yl)-2,2,2-trifluoroethanol] | 1110 | 0.00737 | 0.0383 | 0.00165
